Where a name gives a salt, the structure may show the parent alone.
Experiments:
trypsin = details: literature; cited from earlier work
human factor Xa = target: T1, human factor Xa (Homo sapiens, UniProt P00742); test: Determination of Ki, inhibition of reaction of factor Xa with substrate S-2222; assay type: biochemical; details: Table 3; read-out: Ki FXa (converted)
T1 construct: human factor Xa; purchased KabiVitrum AB, Stockholm
Experimental: (§1) The inhibition of reaction of the enzymes (human thrombin; Sigma Chemical Co., St. Louis, U.S.A. and human factor Xa; KabiVitrum AB, Stockholm) with the substrates (S-2238 resp. S-2222, Kabi Diagnostica, Stockholm) was determined at three different substrate concentrations from 0.3 to 2 km. Six different inhibitor concentrations, which give inhibition from 40% to 90%, were incubated with the enzyme for 30 seconds at 37° C. The buffer composition, ionic strength, pH and enzyme concentration were the same as those recommended in the booklets from Kabi Diagnostica. The initial reaction velocity (ΔA/min) was measured on a recorder at 405 nm. Ki values were than graphically determined from Dixon and Lineweaver-Burk diagrams.

human thrombin = target: T2, human thrombin (Homo sapiens, UniProt P00734); test: Determination of Ki, inhibition of reaction of thrombin with substrate S-2238; assay type: biochemical
T2 construct: human thrombin; purchased Sigma Chemical Co., St. Louis, U.S.A
Experimental: as §1
Ki of thrombin is given in mol/l.

thrombin [1] = test: Thrombin time, plasma (prolongation of coagulation time initiated by thrombin); assay type: biochemical, dog; details: for "Thrombin time" Concentration required to prolong the coagulation time by a factor of 2: Table 3; for Thrombin time, plasma: concentration of the inhibitor which doubles the thrombin time of dog plasma: Table 1, 37° C., 30 seconds incubation
Experimental: A volume of 200 μl citrate-plasma was heated for 1 minute at 37° C. The coagulation was started by adding 10 μl fresh thrombin solution (about 5 NIH U/ml) and the coagulation time was registrated by a fibrinometer. At the inhibition experiments the plasma was incubated for 30 seconds with 10 μl inhibitor solution at different concentrations before the thrombin solutions was added.
"Thrombin time" designates the concentration (mol/l) of the inhibitor, which doubles the thrombin time of dog plasma. The Arg derivates have been synthesized according to ref. 1 and 2.Tos-Gph-OMe has been synthesized according to ref. 6.

thrombin [2] = details: literature; cited from earlier work
thrombin [3] = details: literature; cited from earlier work; remark: listed apart in the source

T1 sequence (P00742 235-488 limits assumed): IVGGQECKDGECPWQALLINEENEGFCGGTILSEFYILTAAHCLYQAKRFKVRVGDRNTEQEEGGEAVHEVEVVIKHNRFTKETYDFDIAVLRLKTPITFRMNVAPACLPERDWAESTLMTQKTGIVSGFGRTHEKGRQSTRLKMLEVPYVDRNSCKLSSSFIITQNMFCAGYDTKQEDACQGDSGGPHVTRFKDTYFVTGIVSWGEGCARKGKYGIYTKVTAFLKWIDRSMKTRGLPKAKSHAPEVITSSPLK
T1 sequence (P00742 41-179 partner limits assumed): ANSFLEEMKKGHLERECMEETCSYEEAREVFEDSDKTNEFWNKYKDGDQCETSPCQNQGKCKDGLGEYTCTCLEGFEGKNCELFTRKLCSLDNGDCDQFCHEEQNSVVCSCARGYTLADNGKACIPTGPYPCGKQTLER

Ki (human factor Xa)	Ki (human thrombin; Table 3)	Compound	"Thrombin time" Concentration required to prolong the coagulation time by a factor of 2 (thrombin [1])	further results
		CCOC(=O)[C@H](Cc1ccc(NC(=N)N)cc1)NC(=O)c1ccccc1 [Bz-Gph-OEt]		substrate for trypsin (trypsin): comparable with Tos-Gph-OMe and Tos-Arg-OMe (TAME)
50 µM		N=C(N)Nc1ccc(C[C@H](NS(=O)(=O)c2ccc3ccccc3c2)C(=O)N2CCOCC2)cc1 [iv, β-Naphthalenesulfonyl--Gph--morpholide]	8.10^-7 mol/l	Ki (human thrombin; Table 2, Gph-derivatives): 180 nM
300 µM	700 nM	CN1CCN(C(=O)[C@H](Cc2ccc(NC(=N)N)cc2)NS(=O)(=O)c2cccc3c(N(C)C)cccc23)CC1 [viii]	1.6.10^-7 mol/l	
250 µM		Cc1ccc(S(=O)(=O)N[C@@H](Cc2ccc(NC(=N)N)cc2)C(=O)N2CCCCC2)cc1 [v, Tos--Gph--piperidide]	1.10^-6 mol/l	Ki (human thrombin; Table 2, Gph-derivatives): 800 nM; Thrombin time, plasma: concentration of the inhibitor which doubles the thrombin time of dog plasma (thrombin [1]): 1.10^-6 mol/l
300 µM	80 nM	CN(C)c1cccc2c(S(=O)(=O)N[C@@H](Cc3ccc(NC(=N)N)cc3)C(=O)N3CCCCCC3)cccc12 [vi]		
20 µM		CC1CCN(C(=O)[C@H](Cc2ccc(NC(=N)N)cc2)NS(=O)(=O)c2ccc3ccccc3c2)CC1 [ii, N^α -(Naphthalene-2-sulfonyl)-p-guanidino-Phe-4-methyl-piperidide hydrochloride]	1.10^-6 mol/l	Ki (human thrombin; Table 2, Gph-derivatives): 310 nM
130 µM	350 nM	CCCCN(C)C(=O)[C@H](Cc1ccc(NC(=N)N)cc1)NS(=O)(=O)c1cccc2c(N(C)C)cccc12 [ix]	2.5.10^-7 mol/l	
250 µM	90 nM	CN(C)c1cccc2c(S(=O)(=O)N[C@@H](Cc3ccc(NC(=N)N)cc3)C(=O)N3CCCCC3)cccc12 [i, N^α -Dansyl-p-guanidino-Phe-piperidide hydrochloride]	6.10^-7 mol/l	Thrombin time, plasma: concentration of the inhibitor which doubles the thrombin time of dog plasma (thrombin [1]): 6.10^-7 mol/l
		CN(C)c1cccc2c(S(=O)(=O)N[C@@H](CCCNC(=N)N)C(=O)N3CCCCC3)cccc12 [Dansyl--Arg--piperidide, reference compound]		Ki (human thrombin; Table 1): 90 nM; Thrombin time, plasma: concentration of the inhibitor which doubles the thrombin time of dog plasma (thrombin [1]): 2.10^-6 mol/l
		Cc1ccc(S(=O)(=O)N[C@@H](CCCNC(=N)N)C(=O)N2CCCCC2)cc1 [Tos--Arg--piperidide, reference compound]		Ki (human thrombin; Table 1): 5000 nM
370 µM		CC1CCN(C(=O)[C@H](Cc2ccc(NC(=N)N)cc2)NS(=O)(=O)c2cccc3ccccc23)CC1 [iii, α-Naphthalenesulfonyl--Gph--4-methylpiperidide]		Ki (human thrombin; Table 2, Gph-derivatives): 350 nM
		COC(=O)[C@H](Cc1ccc(NC(=N)N)cc1)NS(=O)(=O)c1ccc(C)cc1 [Tos--Gph--OMe]		inhibition of thrombin (thrombin [2]): ability to inhibit the amidase- and esterase activity of thrombin; Ki (human thrombin; Table 1): 7500 nM; substrate for / split by thrombin (thrombin [3]): bad substrate for thrombin; substrate for trypsin (trypsin): good substrate for trypsin
		CCOC(=O)[C@H](CCCNC(=N)N)NC(=O)c1ccccc1 [BAEE, Bz-Arg-OEt]		substrate for / split by thrombin (thrombin [3]): can be split by thrombin
200 µM	230 nM	CCCC1CCN(C(=O)[C@H](Cc2ccc(NC(=N)N)cc2)NS(=O)(=O)c2cccc3c(N(C)C)cccc23)CC1 [vii]	1.5.10^-5 mol/l	

Reference: patent US4537896A, “Thrombin inhibiting arylsulfonyl guanidinophenylalanine amides” (KabiVitrum AB, priority 1982, dated 1985)
